Source: US20030229922A1, “Materials and methods for the modification of plant cell wall polysaccharides” (GENESIS RESEARCH AND DEVELOPMENT CORPORATION LTD., priority 1998, published 2003)
Read-outs that look alike come from different tables or passages of the source.

Tests used:
[1] = molecular target: T1, Eucalyptus grandis UGP (UDP-glucose pyrophosphorylase), SEQ ID NO: 79 (DNA; protein SEQ ID NO: 103) (Eucalyptus grandis, UniProt B3VDY8); experiment: UGP enzyme assay (purified recombinant protein); assay type: biochemical; settings: E. grandis UGP
T1 construct: wild type
Text: Sense constructs containing sequences including the coding regions for UGP (SEQ ID NO: 79) and SUS (SEQ ID NO: 105) from Eucalyptus grandis, and UGP (SEQ ID NO: 80) from Pinus radiata were inserted into the expression vector pET16b (Clontech Laboratories Inc, Palo Alto, Calif.). The resulting constructs were transformed into E. coli XL1-Blue (Stratagene) and induced to produce recombinant protein by the addition of IPTG. Purified proteins were obtained using Ni^2+ column chromatography (Janknecht et al., Proc. Natl. Acad. Sci. USA, 88:8972-8976, 1991).
Enzyme assays for UGP were performed using published methods (Peng and Chang, FEBS Lett. 329:153-158, 1993).

[2] = tested on: S. tuberosum UGP (Nakano et al.); settings: cited from earlier work
[3] = tested on: S. tuberosum UGP (Katsube et al.); settings: cited from earlier work
[4] = tested on: V. radiata SUS (sucrose synthase) (Delmer et al.); settings: SEM n.a.; cited from earlier work

T1 sequence (B3VDY8 entry or part of it): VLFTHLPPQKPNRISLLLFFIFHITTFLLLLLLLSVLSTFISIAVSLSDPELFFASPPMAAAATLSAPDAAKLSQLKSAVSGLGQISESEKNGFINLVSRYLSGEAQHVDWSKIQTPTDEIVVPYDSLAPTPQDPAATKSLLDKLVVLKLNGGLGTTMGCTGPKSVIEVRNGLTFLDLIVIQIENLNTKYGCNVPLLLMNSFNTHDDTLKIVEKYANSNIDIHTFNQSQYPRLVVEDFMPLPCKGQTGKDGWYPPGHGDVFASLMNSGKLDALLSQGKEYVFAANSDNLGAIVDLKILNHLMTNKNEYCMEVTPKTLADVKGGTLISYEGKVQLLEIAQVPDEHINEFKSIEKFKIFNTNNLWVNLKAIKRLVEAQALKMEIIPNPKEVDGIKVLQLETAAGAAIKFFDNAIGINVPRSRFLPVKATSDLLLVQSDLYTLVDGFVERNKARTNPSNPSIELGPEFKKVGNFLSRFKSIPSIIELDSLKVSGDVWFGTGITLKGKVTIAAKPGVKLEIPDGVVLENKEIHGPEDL

Compound: Nc1ncnc2c1ncn2[C@@H]1O[C@H](COP(=O)(O)OP(=O)(O)OP(=O)(O)O)[C@@H](O)[C@H]1O [ATP]
- KM^ATP [1]: no activity
- KM^ATP [2]: no activity
- KM^ATP [3]: no activity

Compound: O=P(O)(O)O[C@H]1O[C@H](CO)[C@@H](O)[C@H](O)[C@H]1O [G1P]
- Km ([2]; read-out: KM^G1P, SEM n.a.): 180 µM
- Km ([3]; read-out: KM^G1P, SEM n.a.): 130 µM

Compound: OC[C@H]1O[C@@](CO)(O[C@H]2O[C@H](CO)[C@@H](O)[C@H](O)[C@H]2O)[C@@H](O)[C@@H]1O [Sucrose]
- Km [4]: 16.7 mM

Compound: O=c1ccn([C@@H]2O[C@H](COP(=O)(O)OP(=O)(O)OP(=O)(O)O)[C@@H](O)[C@H]2O)c(=O)[nH]1 [UTP]
- Km ([2]; read-out: KM^UTP, SEM n.a.): 170 µM
- Km ([3]; read-out: KM^UTP, SEM n.a.): 76 µM
